Measured values: patent US20110086870A1, “Combination Therapy” (AstraZeneca AB, priority 2003, published 2011)

Assays:
[1] = system: human LS-174T colon tumour xenografts; assay: Human LS-174T colon tumour xenografts in Nude mice, test (a) 5-FU+ZD6474; format: in vivo; details: for Inhibition of Control Tumour Growth at day 13 / Regressions: number of tumours which had regressed by ≧10% in volume by day 13, compared with pre-treatment volume on day 0: ZD6474 25 mg/kg/day p.o. d 0-13, 5-FU 75 mg/kg i.v. d 0 and 7; for Inhibition of Control Tumour Growth at day 13: versus vehicle control; for Regressions: number of tumours which had regressed by ≧10% in volume by day 13, compared with pre-treatment volume on day 0: regressed tumours/tumours in group; for tumour regressions: share of tumours regressed by day 13, same doses as the table
Procedure: 10^7 LS-174T tumour cells in 0.2 ml of serum free Roswell Park Memorial Institute (RPMI)-1640 medium were injected subcutaneously (s.c.) into the flanks of 10 athymic (nu/nu genotype) mice. When tumour sizes reached 700-1000 mm^3 (3-4 weeks), tumours were surgically excised and smaller tumour fragments thereof (20-30 mg) were implanted s.c. in the right flank of 120 Nude mice. When tumours reached a volume of 100 to 200 mm^3 (14-16 days after the graft), mice were randomized into groups (13-15 per group) and treatment started.
• The control group (Group 1) received a daily oral (p.o.) administration of ZD6474 vehicle for 14 consecutive days (day 0-13) combined with two intravenous (i.v.) injections of saline (the vehicle for 5-FU) on day 0 and 7. • For Group 2, the treatments consisted of a daily p.o. administration of ZD6474 alone at 25 mg/kg/administration for 14 consecutive days (day 0-13) combined with two i.v. injections of saline (the vehicle for 5-FU) on day 0 and 7. ZD6474 was prepared as a suspension in 1% polysorbate 80 (i.e. a 1% (v/v) solution of polyoxyethylene (20) sorbitan mono-oleate in deionised water). • Group 3 received two i.v. injections of 5-FU at 75 mg/kg/injection, on day 0 and 7, combined with a daily p.o. administration of ZD6474 vehicle for 14 consecutive days (day 0-13). • Group 4 received daily p.o. administration of ZD6474 at 25 mg/kg/administration for 14 consecutive days (day 0-13) combined with two i.v. injections of 5-FU at 75 mg/kg/injection, on day 0 and 7.
The administration volume of ZD6474 was 10.0 ml/kg (200 μl for a 20 g mouse). The injection volume of 5-FU was 10.0 ml/kg (200 μl for a 20 g mouse).
Tumor volumes (mm^3) were assessed at least twice weekly by bilateral Vernier caliper measurement and, taking length to be the longest diameter across the tumor and width the corresponding perpendicular, calculated using the formula (π/6)×(length×width)×the square root of (length×width). Growth inhibition from the start of treatment was assessed by comparison of the differences in tumor volume between control and treated groups. For all mice, the study was stopped when tumours reached 2,000 mm^3 For all mice, the tumours were excised and weights recorded upon termination of the study.

[2] = system: human LS-174T colon tumour xenografts; assay: Human LS-174T colon tumour xenografts in Nude mice, test (b) CPT-11+ZD6474; format: in vivo; details: ZD6474 25 mg/kg/day p.o. d 0-20, CPT-11 20 mg/kg i.v. d 0, 7 and 14
Procedure: • The control group (Group 1) received a daily oral (p.o.) administration of ZD6474 vehicle for 14 consecutive days (day 0-13) combined with two intravenous (i.v.) injections of saline (the vehicle for CPT-11) on day 0 and 7. […]
Tumor volumes (mm^3) were assessed at least twice weekly by bilateral Vernier caliper measurement and, taking length to be the longest diameter across the tumor and width the corresponding perpendicular, calculated using the formula (π/6)×(length×width)×square root of (length×width). Growth inhibition from the start of treatment was assessed by comparison of the differences in tumor volume between control and treated groups. For all mice, the study was stopped when tumours reached 2,000 mm^3 For all mice, the tumours were excised and weights recorded upon termination of the study.

In the case of `O=c1[nH]cc(F)c(=O)[nH]1` [5-FU, 5-fluorouracil, reference compound], the “Inhibition of Control Tumour Growth at day 13” value [1] is reported as 68%, the “Regressions: number of tumours which had regressed by ≧10% in volume by day 13, compared with pre-treatment volume on day 0” value [1] is reported as 6/15 and the tumour regressions [1] is reported as 40%.
In the case of `COc1cc2c(Nc3ccc(Br)cc3F)ncnc2cc1OCC1CCN(C)CC1` [ZD6474, 4-(4-bromo-2-fluoroanilino)-6-methoxy-7-(1-methylpiperidin-4-ylmethoxy)quinazoline], the “mean tumour volume on day 20” value [2] is reported as 475 mm^3, the “Inhibition of Control Tumour Growth at day 13” value [1] is reported as 80% and the “Regressions: number of tumours which had regressed by ≧10% in volume by day 13, compared with pre-treatment volume on day 0” value [1] is reported as 5/15. It also gave a tumour regressions [1] of 33%.
